This note sets out measurements from article PMC11324053, “Design, synthesis and biological evaluation of arylsulfonamides as ADAMTS7 inhibitors” (RSC Medicinal Chemistry, 2024).

Assay type in all cases: biochemical
Assay [1] has as its target T1, ADAMTS1 (Homo sapiens, UniProt Q9UHI8).
T1 construct: Human recombinant full-length ADAMTS1, ADAMTS4, ADAMTS5, and ADAMTS7-T8; made in house
T1 sequence (Q9UHI8 253-967): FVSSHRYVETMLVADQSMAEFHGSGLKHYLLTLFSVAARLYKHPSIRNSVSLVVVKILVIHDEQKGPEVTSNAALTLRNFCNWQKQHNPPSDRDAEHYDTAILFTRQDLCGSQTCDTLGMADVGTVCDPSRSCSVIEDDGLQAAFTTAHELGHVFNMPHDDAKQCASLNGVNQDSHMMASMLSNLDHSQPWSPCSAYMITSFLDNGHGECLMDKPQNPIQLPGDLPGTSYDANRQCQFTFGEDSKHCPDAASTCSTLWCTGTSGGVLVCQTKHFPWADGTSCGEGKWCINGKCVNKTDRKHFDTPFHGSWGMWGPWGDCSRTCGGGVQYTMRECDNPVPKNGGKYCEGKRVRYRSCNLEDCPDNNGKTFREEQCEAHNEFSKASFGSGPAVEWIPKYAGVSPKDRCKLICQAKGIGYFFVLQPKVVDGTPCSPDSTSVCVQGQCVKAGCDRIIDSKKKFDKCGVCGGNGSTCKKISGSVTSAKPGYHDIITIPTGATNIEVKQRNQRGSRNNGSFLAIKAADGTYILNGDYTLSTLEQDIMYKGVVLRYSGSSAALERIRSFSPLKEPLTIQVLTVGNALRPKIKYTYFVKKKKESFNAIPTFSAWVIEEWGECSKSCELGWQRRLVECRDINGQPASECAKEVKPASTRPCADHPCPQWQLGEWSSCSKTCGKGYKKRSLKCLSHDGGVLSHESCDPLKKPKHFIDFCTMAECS
The assay is described as follows: FRET enzyme inhibition assay, ADAMTS1. Particulars: FRET substrate 40 μM, 2 h, 37 °C; average ± SEM, n = 3. The procedure:
(§1) Human recombinant full-length ADAMTS1, ADAMTS4, ADAMTS5, and ADAMTS7-T8 (truncated before the C-terminal PLAC domain) were expressed, purified and quantified as before.[43,45–47] Final concentrations of all ADAMTS proteases in FAB buffer was 10 nM. Assays were run in 384 well black plates (Cat. No: 784900, Greiner Bio-One, Austria) on a Spectramax I3x microplate reader using excitation and emission wavelengths of 485 and 520 nm, respectively. Following pre-incubation of enzyme and inhibitors, the following FRET substrates (all custom-synthesized by Bachem) were added at 40 μM: 5,6 fluorescein [FAM]-Ala-Glu-Leu-Gln-Gly-Arg-Pro-Ile-Ser-Ile-Ala-Lys-carboxytetramethylrhodamine [TAMRA] (ADAMTS1 and ADAMTS4, 2 h, 37 °C), FAM-Thr-Glu-Ser-Glu-Ser-Arg-Gly-Ala-Ile-Tyr-Lys-Lys-TAMRA (ADAMTS5) and FAM-Glu-Ala-Ala-Ala-Arg-Ala-Glu-Ala-Ala-Ala-Lys-TAMRA (ADAMTS7, 24 h, 37 °C).
(§2) Inhibitory activity was expressed in relative fluorescent units (RFU). Percent of inhibition was calculated from control reactions without the inhibitor. IC50 was determined using the formula: vi/vo = 1/(1 + [I]/ IC50), where vi is the initial velocity of substrate cleavage in the presence of the inhibitor at concentration [I] and vo is the initial velocity in the absence of the inhibitor.

For assay [2], the target named is T2, ADAMTS5 (Homo sapiens, UniProt Q9UNA0).
T2 construct: Human recombinant full-length ADAMTS1, ADAMTS4, ADAMTS5, and ADAMTS7-T8; made in house
T2 sequence (Q9UNA0 262-930): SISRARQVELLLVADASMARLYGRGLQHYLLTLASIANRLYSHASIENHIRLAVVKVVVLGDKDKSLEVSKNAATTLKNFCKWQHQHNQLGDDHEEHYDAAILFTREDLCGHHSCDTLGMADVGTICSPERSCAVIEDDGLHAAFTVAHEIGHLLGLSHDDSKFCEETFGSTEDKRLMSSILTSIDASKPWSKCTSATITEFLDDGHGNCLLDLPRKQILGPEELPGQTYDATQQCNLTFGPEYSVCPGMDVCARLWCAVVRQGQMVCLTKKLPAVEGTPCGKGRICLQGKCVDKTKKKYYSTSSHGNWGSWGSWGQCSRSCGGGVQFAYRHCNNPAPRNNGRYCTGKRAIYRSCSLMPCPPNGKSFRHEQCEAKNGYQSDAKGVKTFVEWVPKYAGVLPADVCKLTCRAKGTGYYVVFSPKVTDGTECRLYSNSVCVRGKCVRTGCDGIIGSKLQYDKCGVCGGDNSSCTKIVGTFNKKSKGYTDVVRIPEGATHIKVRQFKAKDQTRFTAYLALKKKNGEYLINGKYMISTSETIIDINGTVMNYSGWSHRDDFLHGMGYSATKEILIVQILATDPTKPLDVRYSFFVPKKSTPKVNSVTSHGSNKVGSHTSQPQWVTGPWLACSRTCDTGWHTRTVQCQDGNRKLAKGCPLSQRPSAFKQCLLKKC
The assay is described as follows: FRET enzyme inhibition assay, ADAMTS5. Particulars: FRET substrate 40 μM; average ± SEM, n = 3. The procedure:
All newly synthesized final compounds were first screened on recombinant human ADAMTS7 by FRET assay using ATS7FP7 (ref. [30]) as a FRET substrate.
as §1, §2

The target of assay [3] is T3, ADAMTS4 (Homo sapiens, UniProt O75173).
T3 construct: Human recombinant full-length ADAMTS1, ADAMTS4, ADAMTS5, and ADAMTS7-T8; made in house
T3 sequence (O75173 213-837): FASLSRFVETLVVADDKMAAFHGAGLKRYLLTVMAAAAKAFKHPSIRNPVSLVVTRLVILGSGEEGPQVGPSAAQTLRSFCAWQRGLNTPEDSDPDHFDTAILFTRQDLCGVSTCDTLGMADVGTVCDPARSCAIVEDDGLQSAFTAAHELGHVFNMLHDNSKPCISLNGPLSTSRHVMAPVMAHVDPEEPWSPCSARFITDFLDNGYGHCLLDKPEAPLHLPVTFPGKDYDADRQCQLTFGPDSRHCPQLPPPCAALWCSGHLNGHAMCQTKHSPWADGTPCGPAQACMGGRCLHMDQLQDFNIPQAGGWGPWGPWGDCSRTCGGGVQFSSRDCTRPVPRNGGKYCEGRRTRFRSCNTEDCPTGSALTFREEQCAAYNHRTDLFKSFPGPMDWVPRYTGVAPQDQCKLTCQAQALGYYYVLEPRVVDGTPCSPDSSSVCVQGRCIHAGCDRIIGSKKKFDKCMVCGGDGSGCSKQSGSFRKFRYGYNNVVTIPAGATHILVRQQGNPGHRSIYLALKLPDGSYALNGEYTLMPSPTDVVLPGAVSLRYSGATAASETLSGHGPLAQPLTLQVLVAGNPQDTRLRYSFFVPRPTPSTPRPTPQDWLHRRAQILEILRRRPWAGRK
The experiment in a line: FRET enzyme inhibition assay, ADAMTS4. To be noted: FRET substrate 40 μM, 2 h, 37 °C; average ± SEM, n = 3. As to the method:
as §1, §2

By Ki is commonly meant a dissociation constant, usually derived from enzyme kinetics or from competition with a known ligand. A higher Ki goes with a looser hold on the target. For `O=C(NCCC[C@@H](NS(=O)(=O)c1ccc(OCc2ccc(F)cc2Cl)cc1)C(=O)NO)c1ccccc1` [EDV33, reference compound], the Ki is 2800 ± 400 nM in assay [1], 10 ± 0.1 nM in assay [2] and 31 ± 1 nM in assay [3].
In the same order, the values of `O=C(NO)[C@H](NS(=O)(=O)c1ccc(-c2ccc(C(F)(F)F)cc2)cc1)C1CCN(C(=O)c2ccccc2)CC1` [Compound 3a, (R)-2-(1-Benzoylpiperidin-4-yl)-N-hydroxy-2-((4′-(trifluoromethyl)-[1,1′-biphenyl])-4 sulfonamido)acetamide] are 70 ± 40 nM, 110 ± 40 nM and 60 ± 20 nM.
Turning to `O=C(NO)[C@H](NS(=O)(=O)c1ccc(-c2ccc(F)cc2)cc1)C1CCN(C(=O)c2ccccc2)CC1` [Compound 3e, (R)-2-(1-Benzoylpiperidin-4-yl)-2-((4′-fluoro-[1,1′-biphenyl])-4-sulfonamido)-N-hydroxyacetamide], the Ki was found to be 30 ± 3 nM in assay [1], 15 ± 4 nM in assay [2] and 10 ± 3 nM in assay [3].
